Data as given in patent publication US20240368133A1, “Compounds for the Treatment of Pain, in Particular, Neuropathic Pain, and/or Other Diseases or Disorders that are Associated with AT2R and/or AT2R Mediated Signaling” (Confo Therapeutics N.V., priority 2021, published 2024).
Like-named read-outs stand apart in the source and are kept apart here.

Tests used:
Assay type in all cases: in vitro ADME
[1] = Liver microsomal stability, mouse; settings: male, pH 7.4, liver microsomes
Description: Mouse hepatic microsomes were isolated from pooled (50), perfused livers of male Balb/c mice. Rat hepatic microsomes were isolated from pooled (15), perfused livers of male Wistar rats. Isolation was performed according to the standard protocol (Hill, J. R. in Current Protocols in Pharmacology 7.8.1-7.8.11, Wiley Interscience, 2003). The batches of microsomes were tested for quality control using Imipramine, Propranolol and Verapamil as reference compounds.
Microsomal incubations were carried out in 96-well plates in 5 aliquots of 40 μL each (one for each time point). Liver microsomal incubation medium contained PBS (100 mM, pH 7.4), MgCl2 (3.3 mM), NADPH (3 mM), glucose-6-phosphate (5.3 mM), glucose-6-phosphate dehydrogenase (0.67 units/ml) with 0.42 mg of liver microsomal protein per ml. Control incubations were performed replacing the NADPH-cofactor system with PBS. Test compound (2 μM, final solvent concentration 1.6%) was incubated with microsomes at 37° C., shaking at 100 rpm. Incubations were performed in duplicates. Five time points over 40 minutes have been analyzed. The reactions were stopped by adding 12 volumes of 90% acetonitrile-water to incubation aliquots, followed by protein sedimentation by centrifuging at 5500 rpm for 3 minutes. […]. Supernatants were analyzed using the HPLC system coupled with tandem mass spectrometer (API3000 PE Sciex). Acquisition and analysis of the data were performed using Analyst 1.5.2 software (PE Sciex). The elimination constant (kel), half-life (t½) and intrinsic clearance (Clint) were determined in plot of […] versus time, using linear regression analysis:
Mouse hepatic microsomes were isolated from pooled, perfused livers of male CD1 mice. Rat hepatic microsomes were isolated from pooled, perfused livers of male Sprague Dawley rats. Dog hepatic microsomes were isolated from pooled, perfused livers of male Beagle dogs. The batches of microsomes were tested for quality control using Testosterone, Propranolol and Caffeine as reference compounds.
A 10 mM stock solution of compound in DMSO is diluted three-fold in DMSO. This pre-diluted compound solution is then further diluted to 2 μM in a 50 mM phosphate buffer (PBS, pH 7.4) and pre-warmed at 37° C. This compound dilution is mixed F2 with microsomal/cofactor mix at 37° C. under shaking at 300 rpm. Final reaction conditions are: 100 μL incubation volume, 1 μM of test compound (in duplicate), <0.1% DMSO, 0.5 mg/mL microsomes, 0.6 U/mL Glucose-6-phosphate-dehydrogenase (G6PDH, Roche, 10127671001), 3.3 mM MgCl2 (Sigma, M2670), 3.3 mM glucose-6-phosphate (Sigma, G-7879) and 1.3 mM NADP+ (Sigma, N-0505).
After 60 min of incubation at 300 rpm and 37° C., the reaction was stopped with 3 volumes of STOP solution (acetonitrile/MeOH 2/1 with diclofenac as internal standard). For the time point zero, 3 volumes of STOP solution were added to the compound dilution before the microsome mix was added. Six time points over 60 minutes have been analyzed. The samples of all time points were centrifuged, filtered and the supernatant analyzed by LCMS/MS (systems API4000).
The instrument responses (peak areas/IS peak area) were referenced to the zero time-point samples (considered as 100%) in order to determine the percentage of compound remaining.
Testosterone (1 μM) and Propranolol and Caffeine (1 μM) were used as reference compounds, being unstable and stable compounds respectively. If the microsomal stability values for these controls are not in the range determined by the historical data, the assay is not validated. The solubility of the compound in the final test concentration in 50 mM buffer pH 7.4 is checked by microscope to indicate whether precipitation is observed or not. If a precipitate is observed, no data of microsomal stability is generated.

CYP2D6 = CYP2D6 (Homo sapiens (Human), UniProt P10635); experiment: CYP inhibition, CYP2D6; settings: test compound at 10 μM, read-out: % Inhibition (PIN) 2D6
Sequence of CYP2D6 (P10635 whole entry): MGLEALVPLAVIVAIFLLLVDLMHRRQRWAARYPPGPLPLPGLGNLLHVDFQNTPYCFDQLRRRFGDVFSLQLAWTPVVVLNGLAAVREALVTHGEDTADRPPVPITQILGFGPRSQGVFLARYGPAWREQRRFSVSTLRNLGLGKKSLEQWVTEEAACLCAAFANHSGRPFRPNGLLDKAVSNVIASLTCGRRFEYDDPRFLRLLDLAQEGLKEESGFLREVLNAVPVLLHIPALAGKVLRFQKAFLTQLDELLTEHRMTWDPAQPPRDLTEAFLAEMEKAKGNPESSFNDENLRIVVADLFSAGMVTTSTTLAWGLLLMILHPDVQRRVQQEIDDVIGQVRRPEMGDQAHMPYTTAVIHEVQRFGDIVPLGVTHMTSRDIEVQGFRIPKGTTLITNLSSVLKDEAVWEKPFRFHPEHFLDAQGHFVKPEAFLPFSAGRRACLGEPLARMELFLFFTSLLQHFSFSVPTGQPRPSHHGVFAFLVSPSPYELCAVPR
Description: The aim of this assay is to determine the inhibitory potential of a test compound. A major concern for drug-drug-interaction is cytochrome P450 inhibition. Reversible CYP inhibition was determined in human liver microsomes using specific probe substrates for human cytochrome P450 isoenzymes CYP1A2, 2C9, 2C19, 2D6 and 3A4. […]
(§1) A 10 mM stock solution of test compound is prepared in methanol. This stock is further serially diluted 1:3 in methanol and then added to mixture containing 50 mM potassium phosphate buffer pH7.4, human liver microsomes (BD Gentest) and probe substrate. After pre-warming 5 min at 37° C., the reaction is started by adding co-factor mix ([…] glucose-6-phosphate, 1.7 mg/mL NADP, 6 U/mL of glucose-6-phosphate dehydrogenase), resulting in a final concentration of test compound at 10 μM (2% MeOH).
(§2) Final concentrations of co-factor mix components are as follows: 1.56 mg/mL glucose-6-phosphate, 0.34 mg/mL NADP, 1.2 U/mL of glucose-6-phosphate dehydrogenase.
(§3) After incubation at 37° C., the reaction (aliquot of 50 μL) is terminated with 150 μL CH3CN:MeOH (2:1) solution with internal standard (warfarin for 2C9, diclofenac for all other tested isoforms). Samples are centrifuged and the supernatant fractions analyzed by LC-MS/MS.
(§4) The instrument responses (ratio of test compound and internal standard peak areas) are referenced to those for solvent controls (assumed as 100%) in order to determine the percentage reduction in probe metabolism. Percent of control activity vs. concentration plots are generated and fitted using GraphPad Prism software to generate IC50.

CYP3A4 = CYP3A4 (Homo sapiens (Human), UniProt P08684); experiment: CYP inhibition, CYP3A4; settings: test compound at 10 μM
Sequence of CYP3A4 (P08684 whole entry): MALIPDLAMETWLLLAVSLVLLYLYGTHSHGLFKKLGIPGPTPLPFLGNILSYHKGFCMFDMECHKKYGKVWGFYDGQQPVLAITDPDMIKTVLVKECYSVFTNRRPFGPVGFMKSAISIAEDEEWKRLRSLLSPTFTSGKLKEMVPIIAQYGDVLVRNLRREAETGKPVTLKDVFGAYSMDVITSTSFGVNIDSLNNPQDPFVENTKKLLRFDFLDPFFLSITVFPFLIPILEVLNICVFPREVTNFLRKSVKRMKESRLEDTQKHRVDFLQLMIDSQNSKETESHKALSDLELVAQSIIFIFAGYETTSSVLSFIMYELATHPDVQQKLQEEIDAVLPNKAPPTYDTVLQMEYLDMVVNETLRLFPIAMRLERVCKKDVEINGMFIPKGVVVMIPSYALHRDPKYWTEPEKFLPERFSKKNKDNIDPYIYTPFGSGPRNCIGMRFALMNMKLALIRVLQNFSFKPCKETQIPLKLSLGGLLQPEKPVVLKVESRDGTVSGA
Description: The aim of this assay is to determine the inhibitory potential of a test compound. A major concern for drug-drug-interaction is cytochrome P450 inhibition. Reversible CYP inhibition was determined in human liver microsomes using specific probe substrates for human cytochrome P450 isoenzymes CYP1A2, 2C9, 2C19, 2D6 and 3A4.
The potential for CYP450 inhibition was assessed by performing in vitro inhibition studies using fluorogenic CYP450 substrates with the corresponding CYP450 enzymes and NADPH regeneration system (Vivid CYP450 Screening Kits) with some minor changes to the manufacturer's protocols. The fluorescent signal produced from reaction is directly proportional to the cytochrome P450 activity. In the cases when tested compounds interfere with the CYP450 enzyme-substrate reaction, the fluorescent signal decreases. In brief, the tested compounds were first dissolved in DMSO at 100× concentration (1 mM), and diluted in buffer to 2.5× concentration (25 μM). Then the 2.5× compound solutions were mixed with the Master Pre-mix consisting of Human CYP450+Oxidoreductase and NADP+Regeneration System (glucose-6-phosphate and glucose-6-phosphate dehydrogenase). After 10 minutes pre-incubation, the enzymatic reaction was initiated by the addition of a mix of NADPH and the appropriate CYP450 substrates. The plate was incubated for the desired reaction time (25 min for CYP1A2, CYP2C9, CYP2D6, and CYP3A4, 60 min for CYP2C19) after which Stop Reagent was added and fluorescence measured using SpectraMax Paradigm Multi-Mode Microplate Reader. All test points were performed in quadruplicates at concentration 10 μM (1% DMSO).
as §1, §2, §3, §4

[2] = pH 7.4, probe substrate Midazolam (M), human liver microsomes, read-out: % Inhibition (PIN) 3A4
[3] = pH 7.4, probe substrate Testosterone (T), human liver microsomes, read-out: % Inhibition (PIN) 3A4 (T)
[4] = human, probe not marked, read-out: % Inhibition (PIN) 3A4

microsomal CLint [1] | inhibition at 10 µM (CYP2D6) | inhibition at 10 µM (CYP3A4; [2]) | inhibition at 10 µM (CYP3A4; [3]) | inhibition at 10 µM (CYP3A4; [4]) | Structure (SMILES)
20 µL/min/mg |  |  |  |  | CC(C)Cc1ccc(-c2nn[nH]n2)c(N2CCN(Cc3nc4ccccc4n3C)CC2)c1 [Compound A-20, 2-[[4-[5-isobutyl-2-(2H-tetrazol-5-yl)-phenyl]piperazin-1-yl]methyl]-1-meth-yl-benzimidazole]
 | 15% | 82% | 28% |  | Cc1cnc(CN2CCN(c3cc(CC(C)C)cc(F)c3-c3nn[nH]n3)C[C@@H]2C)s1 [Compound A-223, 2-[[(2S)-4-[3-fluoro-5-isobutyl-2-(2H-tetrazol-5-yl)phenyl]-2-methyl-piperazin-1-yl]methyl]-5-methyl-thiazole]
16 µL/min/mg | 23.1% |  |  | 94.6% | CC(C)Cc1ccc(-c2nn[nH]n2)c(N2CCN(Cc3nc4ccccc4c(=O)[nH]3)CC2)c1 [Compound A-31, 2-[[4-[5-isobutyl-2-(2H-tetrazol-5-yl)phenyl]piperazin-1-yl]methyl]-3H-quinazolin-4-one]
9 µL/min/mg | 3.85% |  |  | 59.5% | CC(C)Oc1ccc(-c2nn[nH]n2)c(N2CCN(Cc3nc4ccccc4n3C)CC2)c1 [Compound A-24, 2-[[4-[5-isopropoxy-2-(2H-tetrazol-5-yl)phenyl]piperazin-1-yl]methyl]-1-methyl-benzimidazole]
 | 68% | 73% | 25% |  | CC(C)Cc1cc(F)c(-c2nn[nH]n2)c(N2CCN(Cc3ccccn3)[C@@H](C)C2)c1 [Compound A-217, (2S)-4-[3-fluoro-5-isobutyl-2-(2H-tetrazol-5-yl)phenyl]-2-methyl-1-(2-pyridylmethyl)piperazine]
11 µL/min/mg | -0.65% |  |  | 38.7% | CC(C)Cc1ccc(-c2nn[nH]n2)c(N2CCN(Cc3nccn3C)CC2)c1 [Compound A-83, 1-[5-isobutyl-2-(2H-tetrazol-5-yl)-phenyl]-4-[(1-meth-ylimidazol-2-yl)-methyl]piperazine]
7 µL/min/mg | 6.32% |  |  | 21.1% | CC(C)Cc1ccc(-c2nn[nH]n2)c(N2CCN(Cc3ncccn3)CC2)c1 [Compound A-88]
6 µL/min/mg | 38.2% |  |  | 68.2% | CC(C)Oc1ccc(-c2nn[nH]n2)c(N2CCN(Cc3nc4ccccc4c(=O)[nH]3)CC2)c1 [Compound A-32]
7 µL/min/mg | -2.54% |  |  | 50.6% | Cc1cc(CN2CCN(c3cc(CC(C)C)ccc3-c3nn[nH]n3)CC2)no1 [Compound A-82, 3-[[4-[5-isobutyl-2-(2H-tetrazol-5-yl)phenyl]piperazin-1-yl]methyl]-5-methyl-isoxazole]
69 µL/min/mg | 14.8% |  |  | 54.2% | CCCCNC(=O)NS(=O)(=O)c1ccc(C(F)(F)F)cc1N1CCN(Cc2nc3ccccc3n2C)CC1 [Compound A-10, 1-butyl-3-[2-[4-[(1-methylbenzimidazol-2-yl)methyl]piperazin-1-yl]-4-(trifluoromethyl)phenyl]sulfonyl-urea]
17 µL/min/mg | -7.67% |  |  | 49.1% | CC(C)Cc1ccc(-c2nn[nH]n2)c(N2CCN(Cc3ccnn3C)CC2)c1 [Compound A-84, 1-[5-isobutyl-2-(2H-tetrazol-5-yl)phenyl]-4-[(1-methylpyrazol-5-yl)methyl]piperazine]
33 µL/min/mg |  |  |  |  | CCCCOC(=O)NS(=O)(=O)c1ccc(C(F)(F)F)cc1N1CCN(Cc2nc3ccccc3n2C)CC1 [Compound A-09, butyl N-[2-[4-[(1-methylbenzimidazol-2-yl)methyl]piperazin-1-yl]-4-(trifluoromethyl)phenyl]sulfonylcarbamate]
4 µL/min/mg |  |  |  |  | CC(C)Oc1ccc(-c2nn[nH]n2)c(N2CCN(Cc3nc4ccccc4s3)CC2)c1 [Compound A-51, 2-[[4-[5-isoprop-oxy-2-(2H-tetrazol-5-yl)phenyl]piper-azin-1-yl]methyl]-1,3-benzothiazole]
6 µL/min/mg |  |  |  |  | CCC1CN(Cc2cccnn2)CCN1c1cc(CC(C)C)cc(F)c1-c1nn[nH]n1 (stereo not drawn) [Compound A-181, 3-[[3-ethyl-4-[3-fluoro-5-isobutyl-2-(2H-tetrazol-5-yl)phenyl]piperazin-1-yl]methyl]pyridazine]
12 µL/min/mg |  |  |  |  | CC(C)Cc1cc(F)c(-c2nn[nH]n2)c(N2CC(C)N(Cc3cccnn3)CC2C)c1 (stereo not drawn) [Compound A-183, 3-[[4-[3-fluoro-5-isobutyl-2-(2H-tetrazol-5-yl)phen-yl]-2,5-dimethyl-piperazin-1-yl]-methyl]pyridazine]
157 µL/min/mg |  |  |  |  | CCCCNC(=O)NS(=O)(=O)c1ccc(C)cc1N1CCN(Cc2nc3ccccc3n2C)CC1 [Compound A-12, 1-butyl-3-[4-methyl-2-[4-[(1-methylbenzimidazol-2-yl)methyl]piperazin-1-yl]phenyl]sulfonyl-urea]

Structure (SMILES) | microsomal CLint [1] | inhibition at 10 µM (CYP2D6) | inhibition at 10 µM (CYP3A4; [2]) | inhibition at 10 µM (CYP3A4; [3]) | inhibition at 10 µM (CYP3A4; [4])
CCC1CN(c2cc(CC(C)C)cc(F)c2-c2nn[nH]n2)CCN1Cc1cccnn1 (stereo not drawn) [Compound A-178, 3-[[2-ethyl-4-[3-fluoro-5-isobutyl-2-(2H-tetrazol-5-yl)phenyl]piperazin-1-yl]methyl]pyridazine] | 15 µL/min/mg | 25.6% |  |  | 8%
